The source of these data is patent US8114895B2, “Use of bipyridine compound ‘Caerulomycin A’ derivatives and analogs thereof as immunosuppressive agents” (Council of Science and Industrial Research, priority 2005, dated 2012).

For the assay, the system named is naïve CD4^+ T cells. Description: Proliferation of naïve CD4+ T cells. In kind it is cell-based. The procedure: Examples establishing the role of Caerulomycin A [isolated from a novel species of Actinoalloteichus] in inducing immunosuppression based on the following: • Splenocytes of BALB/c mice were stimulated with either ConA (1 μg/ml and 2 μg/ml) or LPS (5 μg/ml and 10 μg/ml) and were cultured with different concentrations of Caerulomycin A (0.0003-0.1 μg/ml). After 48 h, the cultures were pulsed with 0.5 μCi of [^3H]-thymidine and harvested 14 h later by automatic cell harvester. Radioactivity incorporated was measured by liquid scintillation counting. • Antigen ovalbumin (100 μg/ml) emulsified in Freund's complete adjuvant was injected in a group consisting of 5 BALB/c mice. […] Radioactivity incorporated was measured by liquid scintillation. The culture supernatants were collected after 48 h and cytokines were measured by ELISA. • Immunosuppressive effect of different doses of Caerulomycin A was monitored on naïve CD4^+ T cells, antigen reactive CD4^+ T cells, Th2 clone and Th1 hybridoma. […] Radioactivity incorporated was measured by liquid scintillation. • Immunosuppressive effect of Caerulomycin A on MLR reaction. […] After 4 days, the cultures were pulsed with 1 μCi of [^3H]-thymidine and harvested 16 h later and radioactivity incorporated was measured by liquid scintillation counting. • In vivo immunosuppressive effect of Caerulomycin A on the proliferation of T cells. […]

As to `COc1cc(/C=N/O)nc(-c2ccccn2)c1` [Caerulomycin A, (E)-4-methoxy-2,2′-bipyridine-6-carbaldehyde oxime], the “in vitro proliferation of naïve CD4+ T cells” value is given as “suppression”.
